In PubChem BioAssay (NCI):
“And” between values parts separate entries of the source, which are not always exact repeats. Equal values may be shown once.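 Five concentrations, 48 hours, 96-well plates. Abbreviation: GI50, concentration required for 50% inhibition of growth. The concentration for full growth arrest is given as TGI.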

Tests used:
Assay in all cases: growth of human tumour cells (NCI), 48 h
A549 NSCLC = test system: A549 NSCLC
CAKI-1 renal = test system: CAKI-1 renal
DU-145 prostate = test system: DU-145 prostate
NCI-H460 lung = test system: NCI-H460 lung
NCI/ADR-RES ovarian = test system: NCI/ADR-RES ovarian
SF-268 CNS = test system: SF-268 CNS
SNB-19 CNS = test system: SNB-19 CNS
SR leukemia = test system: SR leukemia
UACC-62 melanoma = test system: UACC-62 melanoma
T-47D breast = test system: T-47D breast

| SMILES | GI50 (A549 NSCLC) | TGI (A549 NSCLC) | GI50 (CAKI-1 renal) | TGI (CAKI-1 renal) | GI50 (DU-145 prostate) | TGI (DU-145 prostate) | GI50 (NCI-H460 lung) | TGI (NCI-H460 lung) | GI50 (NCI/ADR-RES ovarian) | TGI (NCI/ADR-RES ovarian) | GI50 (SF-268 CNS) | TGI (SF-268 CNS) | GI50 (SNB-19 CNS) | TGI (SNB-19 CNS) | GI50 (SR leukemia) | TGI (SR leukemia) | GI50 (UACC-62 melanoma) | TGI (UACC-62 melanoma) | GI50 (T-47D breast) | TGI (T-47D breast) |
| --- | --- | --- | --- | --- | --- | --- | --- | --- | --- | --- | --- | --- | --- | --- | --- | --- | --- | --- | --- | --- |
| OC[C@H]1C[C@](O)(c2ccccc2Cl)[C@@H](c2ccccc2Cl)O1 | 22.9 µM | 58.1 µM | 32 µM | 86.1 µM | 27.1 µM | 74.3 µM | 19.8 µM | 49.6 µM | 29.4 µM | > 100 µM | 24.2 µM | > 100 µM | 31.7 µM | > 100 µM | 16.9 µM | 41.3 µM | 16.5 µM | 33.6 µM |  |  |
| ClC/C=C/CSc1ncnc2nc[nH]c12 |  |  | > 100 µM | > 100 µM | > 100 µM | > 100 µM | > 100 µM | > 100 µM | > 100 µM | > 100 µM | > 100 µM | > 100 µM | > 100 µM | > 100 µM | > 100 µM | > 100 µM | > 100 µM | > 100 µM | > 100 µM | > 100 µM |
| Cc1ccccc1NC(=O)C(=O)C(C(=O)c1ccccc1F)C1OC(=O)c2ccccc21 (stereo not drawn) |  | > 100 µM |  | 50 µM |  |  |  | > 100 µM |  |  |  | 62.5 µM |  | 94.8 µM |  |  |  |  |  |  |
| O=C(CC1(O)C(=O)Nc2ccc(Cl)cc21)c1ccc(C(=O)NCC2CCC3(CC2)OOC2(CCCCC2)OO3)cc1 (stereo not drawn) |  |  | 1.62 µM | 3.27 µM | 2 µM | 6.49 µM |  |  | 11.8 µM | 45.5 µM | 2.94 µM | 12.9 µM | 4.19 µM | 23.6 µM |  |  | 5.05 µM | 27.6 µM | 1.57 µM | 5.37 µM |
| N#Cc1c(N)oc2cc3c(C#N)c(N)oc3cc12 |  | > 100 µM |  | > 100 µM |  |  |  | > 100 µM |  |  |  | > 100 µM |  | > 100 µM |  |  |  | > 100 µM |  |  |
| O=C1N(c2ccc(Cl)cc2)C(=O)C2(SC=NN2Cc2ccccc2)N1c1ccc(Cl)cc1 (stereo not drawn) |  | > 100 µM |  |  |  |  |  | > 100 µM |  |  |  | > 100 µM |  | > 100 µM |  | > 100 µM |  | > 100 µM |  |  |
| CC(C)(C)n1cc(-c2ccnc(NCCCNS(=O)(=O)c3cccc4ccccc34)c2)c(-c2cccc(O)c2)n1 | 2.29 µM | 5.99 µM | 2.49 µM | 7.04 µM | 2.65 µM | 7.45 µM | 1.93 µM | 3.8 µM |  |  | 2.77 µM | 8.02 µM | 2.63 µM | 7.21 µM | 1.4 µM | 5.65 µM | 1.67 µM | 3.28 µM | 2.22 µM | 6.18 µM |
| COc1cc2c3c(c4cc(OC)c(OC)cc4c2cc1OC)CN1CCC[C@H]1C3 |  | 0.142 µM |  | 0.481 µM and 0.926 µM | 0.0205 µM | 0.187 µM | 0.03 µM and < 0.01 µM | 1.13 µM and 0.825 µM | 0.111 µM and 0.0379 µM |  | 0.0142 µM |  |  | 0.184 µM | 0.0667 µM and 0.0102 µM |  |  |  | 0.0192 µM | 0.33 µM |
| CC(=O)OC1(C(C)=O)CC2(c3ccccc3)OC1(c1ccccc1)c1ccccc12 (stereo not drawn) |  | > 100 µM |  |  |  |  |  | > 100 µM |  |  |  | > 100 µM |  | > 100 µM |  | > 100 µM |  | 43.8 µM |  |  |
| N#Cc1sc2nc3c(c(-c4ccccc4)c2c1N)CCCC3 |  | > 100 µM |  | > 100 µM |  |  |  | > 100 µM |  |  |  |  |  | > 100 µM |  | > 100 µM |  | > 100 µM |  |  |
| COc1cccc(NC(=O)/C(CS(=O)(=O)CCC(C(C)=O)C(C)=O)=N\NC(C)(C)C)c1 |  | > 100 µM |  | > 100 µM |  |  |  | > 100 µM |  |  |  | > 100 µM |  | > 100 µM |  |  |  | > 100 µM |  |  |
| CCCCCCNC(=O)CCN(C(=O)O)S(=O)(=O)c1ccc(NC(=O)c2ccccc2)cc1 |  | > 66.2 µM |  | > 100 µM |  |  |  | > 62.2 µM |  |  |  | > 100 µM |  | > 100 µM |  | 53.8 µM |  | > 77.7 µM |  |  |
| CC(=O)[CH-]C(=O)c1ccccc1.CC(=O)[CH-]C(=O)c1ccccc1.Cl.[O-]CCc1ccccn1.[O-]CCc1ccccn1.[Ti+4] | 27.8 µM | 95.9 µM | 44.1 µM | > 100 µM |  |  |  |  |  |  | 25.8 µM | 75.4 µM | 19.6 µM | 49 µM |  |  | 23.6 µM | > 100 µM |  |  |
| Nc1ncc(CN2CCCC2)c(-c2ccccc2O)n1 |  | > 750 µM |  | > 750 µM |  |  |  | > 750 µM |  |  |  | > 750 µM |  | > 750 µM |  | > 750 µM |  | > 750 µM |  |  |
| C=C(C)[C@@H]1CC[C@]2(C(=O)O)CC[C@]3(C)[C@H](CC[C@@H]4[C@@]5(C)CCC(N)C(C)(C)[C@@H]5CC[C@]43C)[C@@H]12 (stereo partly drawn) |  |  |  |  | 3.07 µM | > 100 µM | 3.12 µM | > 100 µM |  |  |  |  |  |  |  |  | 1.92 µM | 3.55 µM |  |  |
| CCCCCCCCCC(=O)Oc1ccc(/C(=C(/C)c2ccccc2)c2ccc(OCCN3CCCC3)cc2)cc1 | 9.35 µM | 17.7 µM | 6.77 µM | 13.9 µM | 8 µM | 14.8 µM | 8.46 µM | 15.9 µM | 8.03 µM | 16.9 µM | 8.16 µM | 17.2 µM | 9.04 µM | 17.7 µM | 9.08 µM | 19 µM | 9.18 µM | 16.8 µM |  |  |
| COc1cc(OC)c(/C=C/S(=O)(=O)Cc2ccc(OC)c(N)n2)c(OC)c1 | < 0.01 µM | > 100 µM | < 0.01 µM | > 100 µM | < 0.01 µM | > 100 µM | < 0.01 µM |  |  |  | < 0.01 µM | > 100 µM |  | > 100 µM | < 0.01 µM | > 100 µM | < 0.01 µM | > 100 µM | 57.3 µM | > 100 µM |
| NN=C1/C(=C\c2ccccc2)CCC/C1=C/c1ccccc1 |  | > 100 µM |  |  |  |  |  | > 100 µM |  |  |  | > 100 µM |  | > 100 µM |  |  |  | > 100 µM |  |  |
| NC1(C(=O)O)CCC(C(=O)O)CC1 (stereo not drawn) |  | > 100 µM |  | > 100 µM |  |  |  | > 100 µM |  |  |  | > 100 µM |  | > 100 µM |  | > 100 µM |  | > 100 µM |  |  |
| CC1(C)C2CC(=O)C1(C)C(OCc1ccccc1)C2Br (stereo not drawn) |  | > 100 µM |  |  | 29.7 µM and 86.8 µM | > 100 µM | 20.2 µM and 48.5 µM | 43.5 µM and > 100 µM |  | 42.1 µM and > 100 µM |  | > 100 µM | 47.2 µM and > 100 µM | > 100 µM |  | 52.8 µM and 66.1 µM |  | > 100 µM |  | 77.9 µM and > 100 µM |
